Data on five molecules can be found in patent US6677456B2, “Pentacyclic taxan compound” (Daiichi Pharmaceutical Co., Ltd., priority 1999, dated 2004).

Where two headings read alike, the source gives them in different places.

The test system of one series is B16 Melanoma BL6. In words: Antitumor test, B16 Melanoma BL6 subcutaneously transplanted into mice (Test Example 2). The format is in vivo, mice (C57BL/6). The following applies: 4 days after transplantation, tumor weight after 15 days. Here is the method:
B16 Melanoma BL6 was subcutaneously transplanted into mice (C57BL/6), and each compound was administered 4 days thereafter. […] In the case of oral administration, each compound was administered by suspending it in a 0.5% carboxymethylcellulose sodium aqueous solution. Each animal was anatomized after 15 days of the transplantation to measure tumor weight. Antitumor effect was calculated by the following formula.
(§1) {1−(tumor weight of compound-administered group/tumor weight of solvent-administered group)}×100
Six mice were used in each group.

Series [1] in a line: Blood concentration and oral BA in monkey after single intravenous or oral dose (Test Example 4). As to conditions: for Oral BA: ratio of oral AUC to intravenous AUC; for AUC(0-inf): female, Macaca irus (cynomolgus), blood. The format is in vivo, female Macaca irus (monkey). The procedure:
The AUCO0-∞ means area under the blood concentration time curve of a drug concentration in blood during a period of from the time of administration (0 h) to the infinite time and it can be calculated in accordance with the method (trapezoidal rule) disclosed in Kiyoshi Yamaoka and Yusuke Tanigawara, Yakubutsu Sokudoron Nyumon (A Guide to Pharmacokinetics), pages 116-117. In addition, ratio of the AUC at the time of oral administration to the AUC at the time of intravenous administration was calculated as oral BA.
Animal: female Macaca irus, Administration method (compound of formula (B)) [intravenous] EtOH:Tween 80:5% glucose=5:5:90, [oral] […] 10% β-CyD-SBE7 (pH=3.5 in physiological saline), [oral] 40 mM acetate buffer (pH 4.0)

The subject of series [2] is Mouse fibrosarcoma Meth A. In words: Antitumor test, mouse fibrosarcoma Meth A subcutaneously transplanted into mice (Test Example 1). As to conditions: intravenous, tumor weight on 17th day. The format is in vivo, mice (Balb/c). Here is the method: (§2) Mouse fibrosarcoma Meth A was subcutaneously transplanted into mice (line name; Balb/c), and each compound dissolved in a mixed solvent of ethanol, Tween 80 and 5% glucose (5:5:90 (v/v)) was administered by intravenous injection after 6, 8 or 10 days (or only after 6 days) of the transplantation. Each animal was anatomized on the 17th day to examine tumor weight, platelet numbers and renal toxicity. Six mice were used in each group.
Antitumor effect was calculated by the following formula.
as §1

Series [3] is described as follows: Platelet numbers, renal toxicity findings and deaths in the Meth A-bearing mice (Test Example 1). The format is in vivo, mice (Balb/c). The following applies: intravenous, 17th day; for Platelet numbers: % of solvent-administered group. The procedure:
as §2
The number of platelets was expressed by (platelets of compound-administered group/platelets of solvent-administered group)×100.
The renal toxicity findings were expressed as “changed” when a change such as fading was found by macroscopic observation at the time of anatomy or when a change such as precipitation of hyaline droplet substance in the renal tubular cell cytoplasm was found by a histological inspection.

For another series, the system named is human liver microsome. In words: Metabolism in Human Microsome P450 (Test Example 3).

Method for human liver microsome: Each of the samples to be evaluated was dissolved in acetonitrile/water (1:1, v/v) to a concentration of 500 μM, and the solution was mixed with human liver microsome (Xenotech LLC) and other components such as various coenzymes and buffer solution and allowed to generate the metabolic reaction at 37° C. The reaction solution was composed of phosphate buffer (0.076 M; final concentration, the same shall apply hereinafter), sample to be evaluated (10 μM), human liver microsome (1 mg/ml), glucose 6-phosphate (10 mM), glucose-6-phosphate dehydrogenase (1 unit/ml), magnesium chloride (4 mM) and reduced nicotinamide adenine dinucleotide phosphate (β-NADPH, 1 mM), and 500 μl of the solution was used in one reaction. In this case, the reaction solution excluding β-NADPH was incubated in advance at 37° C. for 2 minutes and then the reaction was started by adding a β-NADPH aqueous solution (50 mM, 10 μl).
The reaction was terminated by adding 1 ml of ice-cooled acetonitrile 1, 2 or 5 minutes after commencement of the reaction.
In this connection, a sample of 0 minute after commencement of the reaction was prepared by adding water instead of the β-NADPH aqueous solution and immediately adding 1 ml of acetonitrile. A 100 μl portion of an internal standard substance was added to each of these samples, and the reaction solution was centrifuged for 15 minutes. The resulting supernatant was injected into a high performance liquid chromatography (HPLC) to measure concentration of the sample to be evaluated. […] By plotting the amount of formed metabolite against the reaction time and carrying out linear regression by the method of least squares, amount of the metabolite formed per 1 minute (metabolic rate constant: k (nmol/min/mg protein)) was calculated from the slope.
From the thus obtained metabolic rate constant k (nmol/min/mg protein), the liver-specific clearance (CLint) was calculated by the following formula. […]
Theoretical bioavailability (F) value was calculated from the CLh by the following formula.

For the molecule `CC(=O)O[C@@]12CO[C@@H]1C[C@H](O)[C@@]1(C)C(=O)[C@H](O)C3=C(C)[C@@H](OC(=O)[C@H](O)[C@@H](NC(=O)OC(C)(C)C)c4ccccc4)C[C@@](O)([C@@H](OC(=O)c4ccccc4)[C@H]21)C3(C)C` [(A), taxotere], the Antitumor effect with B16 Melanoma BL6 (180.0 mg/kg intravenous) turned out to be 95.7%; in the series on B16 Melanoma BL6 (600.0 mg/kg oral), 6.2%.
Regarding `COc1ccc([C@H](NC(=O)OC(C)(C)C)[C@@H](O)C(=O)O[C@H]2C[C@@]3(O)[C@@H](OC(=O)c4ccccc4)[C@H]4[C@@](C)(CC[C@H]5OC[C@]54OC(C)=O)[C@@H]4O[C@H](CN5CCOCC5)O[C@@H]4C(=C2C)C3(C)C)nc1` [Example 1, (1S,2S,3R,4S,5R,8R,9S,10R,13S)-4-Acetoxy-2-benzoyloxy-5,20-epoxy-1-hydroxy-9,10-[(1S)-2-(morpholino)ethylidenedioxy]tax-11-en-13-yl (2R,3S)-3-(tert-butoxycarbonylamino)-2-hydroxy-3-(5-methoxy-2-pyridyl)propionate], the melting point lay within 160 to 161 °C.
As for `CC(=O)O[C@@]12CO[C@@H]1CC[C@@]1(C)[C@@H]3O[C@H](CN(C)C)O[C@@H]3C3=C(C)[C@@H](OC(=O)[C@H](O)[C@@H](NC(=O)OC(C)(C)C)c4ncccc4F)C[C@@](O)([C@@H](OC(=O)c4ccccc4)[C@@H]12)C3(C)C` [Example 7, (1S,2S,3R,4S,5R,8R,9S,10R,13S)-4-Acetoxy-2-benzoyloxy-9,10-[(1S)-2-(dimethylamino)ethylidenedioxy]-5,20-epoxy-1-hydroxytax-11-en-13-yl (2R,3S)-3-(tert-butoxycarbonylamino)-3-(3-fluoro-2-pyridyl)-2-hydroxypropionate], the Antitumor effect in the series with B16 Melanoma BL6 (7.9 mg/kg intravenous) is given as 91.5%; in the series with B16 Melanoma BL6 (7.9 mg/kg oral), 91.5%; with B16 Melanoma BL6 (11.9 mg/kg intravenous) it was 95.5%; in the series with B16 Melanoma BL6 (11.9 mg/kg oral), 97.4%. For the same molecule, the “Oral BA” value in series [1] (1.8 mg/kg) is given as 62.4%. Also, the AUC(0-inf) in series [1] (single dose 1.8 mg/kg intravenous, average of 4 monkeys, read-out: AUC0-∞ Intravenous) worked out at 0.994 µg·h/mL; in series [1] (single dose 1.8 mg/kg oral, average of 4 monkeys, read-out: AUC0-∞ Oral), 0.621 µg·h/mL.
Regarding `CC(=O)O[C@@]12CO[C@@H]1CC[C@@]1(C)[C@@H]3O[C@H](CN4CCOCC4)O[C@@H]3C3=C(C)[C@@H](OC(=O)[C@H](O)[C@@H](NC(=O)OC(C)(C)C)c4ccccn4)C[C@@](O)([C@@H](OC(=O)c4ccccc4)[C@@H]12)C3(C)C` [Compound (B)], the Antitumor effect in series [2] (22.5 mg/kg × 1 (day 6)) is 69%; in series [2] (32.4 mg/kg × 1 (day 6), three deaths among 6 animals), 83%; in the series on B16 Melanoma BL6 (13.3 mg/kg oral) it was 90.5%; in the series with B16 Melanoma BL6 (20.0 mg/kg oral) it was 97.4%. For the same molecule, the figures for the Platelet numbers in series [3] (22.5 mg/kg × 1) and in series [3] (32.4 mg/kg × 1) were 124% and 142%, respectively. For the same molecule, in series [3] (32.4 mg/kg × 1), the Renal toxicity findings result was “no change”. Moreover, the “Oral BA” value in series [1] (1.6 mg/kg) came to 7.1%. For the same molecule, the AUC(0-inf) in series [1] (single dose 1.6 mg/kg intravenous, one monkey, read-out: AUC0-∞ Intravenous) worked out at 0.394 µg·h/mL; in series [1] (single dose 1.6 mg/kg oral, one monkey (different individual), read-out: AUC0-∞ Oral) it was 0.0281 µg·h/mL. The “Oral absorption property in monkey (in words)” value in series [1] (in vivo, po) is recorded as “low”.
As for “(1S,2S,3R,4S,5R,8R,9S,10R,13S)-4-Acetoxy-2-benzoyloxy-5,20-epoxy-1-hydroxy-9,10-[(1S)-2-(morpholino)ethylidenedioxy]tax-11-en-13-yl (2R,3S)-3-(tert-butoxycarbonylamino)-3-(5-fluoro-2-pyridyl)-2-hydroxypropionate [Example 3]”, the “Theoretical F value of unchanged compound” value in the series on human liver microsome (calculated from CLh (Well-stirred model, Q 20 ml/min/kg)) is 0.92. This molecule also gave a Metabolic rate constant in the series on human liver microsome (human liver microsome 1 mg/ml, sample 10 μM, 37° C., 0-5 minutes) of 0.02 nmol/min/mg protein. The Clint in the series with human liver microsome (liver-specific clearance calculated from the metabolic rate constant) was 0.108 L/h/kg.

In general, melting point refers to the temperature, or range, at which the solid turns liquid.
